Laboratory results taken from publication PMC2656767 (The Journal of organic chemistry, 2009).

What was measured:
[1] = tested on: wild type (ATCC 90027) C. albicans; test: Modified disk diffusion assay, wild type C. albicans; format: cell-based, Candida albicans; conditions: wild type strain, loads of 1-5 μg/disk
[2] = tested on: amphotericin B resistant C. albicans (ATCC 200955); test: Modified disk diffusion assay, amphotericin B resistant C. albicans; format: cell-based; conditions: amphotericin B-resistant strain, loads of 1-5 μg/disk

## Theopapuamide A [compound 7]
[1]
  antifungal activity (in words): activity
[2]
  antifungal activity (in words): activity
